For eight molecules, TGI results are on record in PubChem BioAssay (NCI).

Some test systems named below: NCI-H460 lung; OVCAR-5 ovarian; HCT-116 colon; OVCAR-8 ovarian; HOP-92 NSCLC; SF-539 CNS; KM12 colon; A498 renal; SK-MEL-28 melanoma; HL-60(TB) leukemia; CAKI-1 renal; CCRF-CEM leukemia; U251 CNS; DU-145 prostate; MDA-N; SNB-75 CNS; LOX IMVI melanoma; RXF 393 renal.
What all share (experiment): DTP human tumour cell line panel, 48 h

Molecules are shown by their SMILES.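 Exposure lasted 48 hours, with cells grown in 96-well plates and compounds tested at five concentrations. Definition used: TGI = concentration required for complete inhibition of growth.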

For the molecule `CC1=NN(C(=O)c2ccccc2O)C(=O)/C1=C/c1ccco1`, the TGI (as a rule, the concentration at which net growth stops) is above 60.5 µM with NCI-H460 lung; above 100 µM in the test with OVCAR-5 ovarian; above 100 µM in the test on HCT-116 colon; 97.9 µM in the test with OVCAR-8 ovarian; above 71.4 µM with HOP-92 NSCLC; 10.7 µM in the test on SF-539 CNS. The TGI is above 100 µM in the test on KM12 colon; above 100 µM in the test with A498 renal; above 100 µM in the test on SK-MEL-28 melanoma; above 26.8 µM with HL-60(TB) leukemia; 19.7 µM in the test on CAKI-1 renal; above 100 µM in the test on CCRF-CEM leukemia. In addition, the TGI in the test with U251 CNS was above 100 µM; with DU-145 prostate it was above 100 µM; in the test on MDA-N, above 100 µM; with SNB-75 CNS, 69.4 µM; in the test with LOX IMVI melanoma, above 75.5 µM.
As for `COC(=O)C1(C(=O)OC)Cc2ccc(OC)cc2C2=C1C(=O)c1ccccc1C2=O`, the TGI in the test on NCI-H460 lung is 33 µM; with OVCAR-5 ovarian, 20.2 µM; with HCT-116 colon, 10.9 µM; in the test with OVCAR-8 ovarian, 9.27 µM; in the test on HOP-92 NSCLC, 15.9 µM; in the test with SF-539 CNS it was 30.7 µM. Further, the TGI was 23.5 µM in the test on KM12 colon; 41.8 µM in the test on A498 renal; 31.4 µM in the test with SK-MEL-28 melanoma; above 21.1 µM in the test with HL-60(TB) leukemia; 7.72 µM in the test with CAKI-1 renal; 11.8 µM with CCRF-CEM leukemia. In addition, the concentration for total growth inhibition (TGI) in the test with U251 CNS was determined as 14.8 µM; with DU-145 prostate, 30.3 µM; with MDA-N, 3.36 µM; in the test with SNB-75 CNS, 35.8 µM; in the test with LOX IMVI melanoma it was 5.39 µM.
Consider `COC(=O)C1(CCC(C)=O)CCCCCC1=O` (configuration not stated), for which the concentration for total growth inhibition (TGI) in the test with NCI-H460 lung, with OVCAR-5 ovarian, in the test on HCT-116 colon, in the test on HOP-92 NSCLC, in the test on SF-539 CNS and with KM12 colon was above 100 µM in each case. Further, the TGI with A498 renal, in the test with SK-MEL-28 melanoma, in the test on CAKI-1 renal, in the test with RXF 393 renal, in the test with U251 CNS and with DU-145 prostate was above 100 µM in each case. The TGI in the test with MDA-N, with SNB-75 CNS and with LOX IMVI melanoma was above 100 µM each time.
`Cc1nc2ccccc2n1COC(Cn1ccnc1)c1ccc(Cl)cc1Cl` (configuration not stated): the TGI with NCI-H460 lung was 46.4 µM; in the test on OVCAR-5 ovarian, above 100 µM; in the test with HCT-116 colon, above 100 µM; in the test on OVCAR-8 ovarian, above 100 µM; in the test on HOP-92 NSCLC, 77.6 µM; with SF-539 CNS, above 100 µM. Moreover, the TGI with KM12 colon is above 100 µM; in the test with A498 renal it was above 100 µM; in the test with SK-MEL-28 melanoma, above 100 µM; in the test on HL-60(TB) leukemia, 85.4 µM; with CAKI-1 renal, 39 µM; in the test on CCRF-CEM leukemia, above 100 µM. Also, the TGI in the test on U251 CNS, with DU-145 prostate, with MDA-N, in the test on SNB-75 CNS and in the test on LOX IMVI melanoma was above 100 µM each time.
For the molecule `NC(N)=N/N=C/c1c(-c2ccc(Cl)cc2)nc2sccn12`, the TGI stood at 3.53 µM in the test on NCI-H460 lung; 7.03 µM in the test with OVCAR-5 ovarian; 2.95 µM in the test on HCT-116 colon; 5.67 µM in the test with HOP-92 NSCLC; 3.36 µM in the test with SF-539 CNS; 13.2 µM in the test on A498 renal. Besides, the TGI with SK-MEL-28 melanoma was found to be 3.44 µM; in the test with CAKI-1 renal, 10.9 µM; in the test with CCRF-CEM leukemia it was 4.23 µM; with RXF 393 renal it was 2.95 µM; in the test on U251 CNS, 3.59 µM; in the test with DU-145 prostate, 13.1 µM. In addition, the results for the TGI with MDA-N and in the test on SNB-75 CNS were 3.33 µM and 3.61 µM, respectively.
As for `C=C(C)C1=CCC[C@]2(C1)N=C(OC)[C@@H](C(C)C)N=C2OC`, the TGI in the test on NCI-H460 lung, with OVCAR-5 ovarian, in the test with HCT-116 colon, in the test with OVCAR-8 ovarian, with HOP-92 NSCLC and in the test with SF-539 CNS was above 100 µM each time. For the same molecule, the TGI with KM12 colon was above 100 µM; in the test on A498 renal, above 100 µM; in the test on SK-MEL-28 melanoma it was above 100 µM; in the test with HL-60(TB) leukemia, 87.9 µM; with CAKI-1 renal, above 100 µM; in the test with CCRF-CEM leukemia, above 100 µM. Further, the TGI with U251 CNS, with DU-145 prostate, with MDA-N and in the test with SNB-75 CNS was above 100 µM in each case.
Regarding `Cc1cc(=O)[nH]c(-n2[nH]c(C)c(CCO)c2=O)n1`, the TGI in the test on NCI-H460 lung, in the test on OVCAR-5 ovarian, in the test with HCT-116 colon, with OVCAR-8 ovarian, with SF-539 CNS and in the test on KM12 colon was above 100 µM throughout. Further, the TGI in the test on A498 renal, in the test on SK-MEL-28 melanoma, with HL-60(TB) leukemia, in the test on CAKI-1 renal, with CCRF-CEM leukemia and in the test on RXF 393 renal was above 100 µM throughout. For the same molecule, the TGI with U251 CNS, in the test with DU-145 prostate, in the test on MDA-N and with LOX IMVI melanoma was above 100 µM throughout.
As to `O=C1/C(=C\c2ccc(O)cc2)CCC/C1=C/c1ccc(Cl)c(Cl)c1`, the TGI with OVCAR-5 ovarian came out at 34.3 µM; in the test on HCT-116 colon it was 4.01 µM; in the test on HOP-92 NSCLC it was 28.9 µM; with KM12 colon, 3.77 µM; in the test with A498 renal, 14.3 µM; with SK-MEL-28 melanoma, 13.9 µM. For the same molecule, the TGI turned out to be 4.94 µM with HL-60(TB) leukemia; 16.7 µM in the test on CAKI-1 renal; 1.2 µM in the test on CCRF-CEM leukemia; 5.8 µM in the test with RXF 393 renal; 16 µM in the test with U251 CNS; 9.8 µM in the test on DU-145 prostate. In addition, the results for the TGI in the test on MDA-N, with SNB-75 CNS and with LOX IMVI melanoma were 8.01 µM, 11.8 µM and 3.62 µM, respectively.
